pEC50: −log10 of the molar value. One block for each compound: values may come before it. Active and inactive are the calls of the source. The rule behind the calls is not given here. Residues, ends and D or L forms follow the SMILES beside them. *: point of attachment. Propyl(2R-PamO,3-PamO) = CCCCCCCCCCCCCCCC(=O)OC[C@H](C*)OC(=O)CCCCCCCCCCCCCCC; Palmitoyl = CCCCCCCCCCCCCCCC(=O)*
Key:
[1] = (§1) Effect on IL-6 mRNA expression in TLR2-/- mouse BMDM cells at 0.1 to 1 uM by qRT-PCR analysis; type: ADME, cell-based
BV-2 [2] = experiment: Effect on IkappaBalpha protein expression in mouse BV2 cells at 0.2 to 2 uM incubated for 12 hrs by Western blot analysis; type: ADME, cell-based; conditions: bv-2, 12 h
[3] = as §1; type: ADME, cell-based; remark: listed apart in the source
TLR2/TLR6 (Homo sapiens) [4] = biological target: T1, TLR2/TLR6 (Homo sapiens) (UniProt O60603+Q9Y2C9); experiment: Agonist activity at TLR2/6 in PMA-differentiated human THP-1 cells assessed as induction of IL-6 production at 2.5 uM incubated for 24 hrs after preincubation with anti-hTLR6-IGG for 2 hrs by ELISA; type: cell-based
[5] = biological target: Toll-like receptor 2 (Mus musculus) (UniProt Q9QUN7); experiment: Agonist activity at TLR2 in wild type mouse BMDM cells assessed as induction of NFkappaB pathway activation by measuring increase in IL-6 mRNA expression by qRT-PCR analysis; type: cell-based
Chain of Toll-like receptor 2 (Mus musculus) (Q9QUN7 whole entry): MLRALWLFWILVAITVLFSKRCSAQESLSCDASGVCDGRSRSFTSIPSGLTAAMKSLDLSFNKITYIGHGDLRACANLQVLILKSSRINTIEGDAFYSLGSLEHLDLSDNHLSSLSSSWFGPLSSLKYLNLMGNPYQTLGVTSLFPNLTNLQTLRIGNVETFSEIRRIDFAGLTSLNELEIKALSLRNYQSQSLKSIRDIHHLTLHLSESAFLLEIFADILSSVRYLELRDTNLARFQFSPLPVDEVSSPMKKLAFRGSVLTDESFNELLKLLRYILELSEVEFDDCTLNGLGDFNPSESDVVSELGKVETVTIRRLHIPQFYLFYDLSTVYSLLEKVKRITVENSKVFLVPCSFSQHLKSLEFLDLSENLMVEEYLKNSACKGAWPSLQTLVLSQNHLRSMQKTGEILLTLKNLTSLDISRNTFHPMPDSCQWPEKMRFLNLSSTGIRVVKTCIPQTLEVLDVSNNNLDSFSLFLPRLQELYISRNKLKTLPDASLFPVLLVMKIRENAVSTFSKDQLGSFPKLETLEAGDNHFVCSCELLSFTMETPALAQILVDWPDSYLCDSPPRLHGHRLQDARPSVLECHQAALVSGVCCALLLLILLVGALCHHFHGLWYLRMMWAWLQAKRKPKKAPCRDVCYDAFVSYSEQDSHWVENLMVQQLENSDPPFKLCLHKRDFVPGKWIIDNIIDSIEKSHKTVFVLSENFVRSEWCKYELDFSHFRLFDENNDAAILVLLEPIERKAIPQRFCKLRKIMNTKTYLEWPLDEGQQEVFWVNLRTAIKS

BMDM [6] = experiment: Effect on IL-12 production in TLR2-/- mouse BMDM cells at 0.1 to 1 uM incubated for 24 hrs by ELISA; type: functional, cell-based
[7] = biological target: Toll-like receptor 2 (Mus musculus) (UniProt Q9QUN7); experiment: Agonist activity at TLR2 in mouse dendritic cells assessed as upregulation CD80 expression at 100 ng/ml by flow cytometry; type: cell-based
THP-1 [8] = experiment: Agonist activity at TLR2/1 in PMA-differentiated human THP-1 cells assessed as induction of IL-6 production at 2.5 uM incubated for 24 hrs after preincubation with anti-hTLR1-IGG for 2 hrs by ELISA; type: cell-based
TLR2/TLR6 (Homo sapiens) [9] = biological target: T1, TLR2/TLR6 (Homo sapiens); experiment: Agonist activity at TLR2/6 in PMA-differentiated human THP-1 cells assessed as induction of IL-6 production at 2.5 uM incubated for 24 hrs after preincubation with […] for 2 hrs by ELISA; type: cell-based
[10] = biological target: Toll-like receptor 2 (Mus musculus) (UniProt Q9QUN7); experiment: Agonist activity at TLR2 in mouse BV2 cells assessed as increase in IL-6 secretion at 2 uM incubated for 24 hrs by ELISA; type: cell-based
[11] = biological target: Toll-like receptor 1/2 (Mus musculus) (UniProt Q9QUN7+Q9EPQ1); experiment: Agonist activity at TLR2/1 in mouse BV2 cells assessed as induction of IL-6 production at 2 uM incubated for 24 hrs in presence of TLR2/1 inhibitor CU-CPT22 by ELISA; type: cell-based
BMDM [12] = experiment: Effect on IL-6 production in TLR2-/- mouse BMDM cells at 0.1 to 1 uM incubated for 24 hrs by ELISA; type: functional, cell-based
[13] = biological target: Toll-like receptor 1/2 (Homo sapiens) (UniProt O60603+Q15399); experiment: Agonist activity at TLR2/1 in PMA-differentiated human THP-1 cells assessed as induction of IL-6 production at 2.5 uM incubated for 24 hrs after preincubation with anti-hTLR2-IGA for 2 hrs by ELISA; type: cell-based
BV-2 [14] = experiment: Cytotoxicity against mouse BV2 cells assessed as cell viability up to 5 uM incubated for 24 hrs by CCK-8 assay; type: cell-based; conditions: bv-2, 24 h
[15] = biological target: Toll-like receptor 2 (Mus musculus) (UniProt Q9QUN7); experiment: Activation of TLR2 in wild type mouse BMDM cells assessed as stimulation of TNFalpha production at 0.1 to 1 uM incubated for 24 hrs by ELISA; type: cell-based
[16] = biological target: Toll-like receptor 2 (Mus musculus) (UniProt Q9QUN7); experiment: Agonist activity at TLR2 in mouse BV2 cells assessed as increase in IL-6 secretion at 1 uM incubated for 24 hrs in presence of NF-kappaB inhibitor triptolide by ELISA; type: cell-based
[17] = biological target: Toll-like receptor 2 (Mus musculus) (UniProt Q9QUN7); experiment: Activation of TLR2 in wild type mouse BMDM cells assessed as stimulation of IL-12 production at 0.1 to 1 uM incubated for 24 hrs by ELISA; type: cell-based
BMDM [18] = experiment: Effect on TNFalpha production in TLR2-/- mouse BMDM cells at 0.1 to 1 uM incubated for 24 hrs by ELISA; type: functional, cell-based
[19] = biological target: Toll-like receptor 2 (Mus musculus) (UniProt Q9QUN7); experiment: Activation of TLR2 in wild type mouse BMDM cells assessed as stimulation of IL-6 production at 0.1 to 1 uM incubated for 24 hrs by ELISA; type: cell-based
[20] = biological target: Toll-like receptor 2 (Mus musculus) (UniProt Q9QUN7); experiment: Agonist activity at TLR2 in mouse dendritic cells assessed as upregulation CD86 expression at 100 ng/ml by flow cytometry; type: cell-based
[21] = biological target: Toll-like receptor 2 (Mus musculus) (UniProt Q9QUN7); experiment: Agonist activity at TLR2 in mouse RAW264.7 cells assessed as induction of IL-6 production incubated for 24 hrs by ELISA; type: cell-based
[22] = biological target: Toll-like receptor 2 (Mus musculus) (UniProt Q9QUN7); experiment: Agonist activity at TLR2 in mouse dendritic cells assessed as upregulation MHC class 2 expression at 100 ng/ml by flow cytometry; type: cell-based
[23] = biological target: Toll-like receptor 2 (Mus musculus) (UniProt Q9QUN7); experiment: Agonist activity at TLR2 in mouse BV2 cells assessed as stimulation of NFkappaB pathway by measuring increase in IkappaBalpha phosphorylation incubated for 12 hrs by Western blot analysis; type: cell-based
[24] = biological target: Toll-like receptor 2 (Homo sapiens) (UniProt O60603); experiment: Agonist activity at human TLR2 in PMA-differentiated THP-1 cells assessed as induction of IL-6 production at 0.5 to 2.5 uM incubated for 24 hrs by ELISA; type: cell-based
Chain of Toll-like receptor 2 (Homo sapiens) (O60603 whole entry): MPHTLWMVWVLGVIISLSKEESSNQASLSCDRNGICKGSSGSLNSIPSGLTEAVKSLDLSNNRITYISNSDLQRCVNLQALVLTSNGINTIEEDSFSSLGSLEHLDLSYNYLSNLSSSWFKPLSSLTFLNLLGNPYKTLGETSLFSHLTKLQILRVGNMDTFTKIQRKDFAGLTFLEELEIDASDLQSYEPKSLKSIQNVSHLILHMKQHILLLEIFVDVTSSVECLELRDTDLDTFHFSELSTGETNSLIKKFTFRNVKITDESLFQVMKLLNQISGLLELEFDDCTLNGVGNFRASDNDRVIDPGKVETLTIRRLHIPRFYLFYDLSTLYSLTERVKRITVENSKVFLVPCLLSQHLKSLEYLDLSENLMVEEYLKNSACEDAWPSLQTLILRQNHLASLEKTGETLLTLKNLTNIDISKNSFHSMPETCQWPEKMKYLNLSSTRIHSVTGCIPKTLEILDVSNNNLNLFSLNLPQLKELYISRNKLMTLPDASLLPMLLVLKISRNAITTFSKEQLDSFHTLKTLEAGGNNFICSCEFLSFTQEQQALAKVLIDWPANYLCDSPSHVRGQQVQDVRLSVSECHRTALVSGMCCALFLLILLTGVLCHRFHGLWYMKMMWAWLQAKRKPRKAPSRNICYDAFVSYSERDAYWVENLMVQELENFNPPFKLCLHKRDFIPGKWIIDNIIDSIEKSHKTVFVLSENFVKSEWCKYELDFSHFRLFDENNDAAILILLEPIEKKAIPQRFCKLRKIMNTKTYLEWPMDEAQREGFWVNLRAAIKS

Dendritic cell [25] = experiment: Effect on MHC class 2 expression in TLR2-/- mouse dendritic cells at 100 ng/ml by flow cytometry; type: ADME, cell-based
[26] = Effect on TNFalpha mRNA expression in TLR2-/- mouse BMDM cells at 0.1 to 1 uM by qRT-PCR analysis; type: ADME, cell-based
THP-1 [27] = experiment: Cytotoxicity against human THP1 cells assessed as cell viability up to 5 uM incubated for 24 hrs by CCK-8 assay; type: cell-based; conditions: thp-1, 24 h
Dendritic cell [28] = experiment: Effect on CD86 expression in TLR2-/- mouse dendritic cells at 100 ng/ml by flow cytometry; type: ADME, cell-based
Dendritic cell [29] = experiment: Effect on CD80 expression in TLR2-/- mouse dendritic cells at 100 ng/ml by flow cytometry; type: ADME, cell-based
Toll-like receptor 2 = Toll-like receptor 2 (Mus musculus, UniProt Q9QUN7); experiment: Agonist activity at TLR2 in wild type mouse BMDM cells assessed as induction of NFkappaB pathway activation by measuring increase in TNF-alpha mRNA expression by qRT-PCR analysis; type: cell-based
Chain of Toll-like receptor 2 (Q9QUN7 whole entry): as the sequence (Q9QUN7 whole entry) above

Activity (BV-2 [2]): Active
SMILES: CCCCCCCCCCCCCCCC(=O)N[C@@H](CSCCNC(=O)OCCCCCCCCCCCCCC)C(=O)N[C@@H](CO)C(=O)N[C@@H](CCCCN)C(=O)N[C@@H](CCCCN)C(=O)N[C@@H](CCCCN)C(=O)N[C@@H](CCCCN)C(=O)O
Activity [1]: Non-Toxic | Activity [3]: Non-Toxic

Activity (TLR2/TLR6 (Homo sapiens) [4]): inactive | Activity [5]: Dose-dependent effect | Activity [7]: Dose-dependent effect
SMILES: CCCCCCCCCCCCCCCC(=O)N[C@@H](CSC[C@@H](COC(=O)CCCCCCCCCCCCCCC)OC(=O)CCCCCCCCCCCCCCC)C(=O)N[C@@H](CO)C(=O)N[C@@H](CCCCN)C(=O)N[C@@H](CCCCN)C(=O)N[C@@H](CCCCN)C(=O)N[C@@H](CCCCN)C(=O)O (Palmitoyl-C(Propyl(2R-PamO,3-PamO))SKKKK-OH)
Activity [1]: Non-Toxic | Activity (BMDM [6]): Active | Activity [3]: Non-Toxic | Activity (THP-1 [8]): inactive

Activity (TLR2/TLR6 (Homo sapiens) [9]): inactive | Activity [10]: Active | Activity [11]: inactive
SMILES: CCCCCCCCCCCCCCCCOC(=O)NCCSC[C@H](NC(=O)NCCCCCCCCCCCCCC)C(=O)N[C@H](CO)C(=O)N[C@@H](CCCCN)C(=O)N[C@@H](CCCCN)C(=O)N[C@@H](CCCCN)C(=O)N[C@@H](CCCCN)C(=O)O
Activity (BMDM [12]): inactive

Activity [13]: inactive
SMILES: CCCCCCCCCCCCCCCC(=O)NCCSC[C@H](NC(=O)CCCCCCCCCCCCCCC)C(=O)N[C@H](CO)C(=O)N[C@@H](CCCCN)C(=O)N[C@@H](CCCCN)C(=O)N[C@@H](CCCCN)C(=O)N[C@@H](CCCCN)C(=O)O
Activity (BMDM [12]): inactive

Activity (BV-2 [2]): Active
SMILES: CCCCCCCCCCCCCCCC(=O)N[C@@H](CSCCOC(=O)CCCCCCCCCCCCCCC)C(=O)N[C@@H](CO)C(=O)N[C@@H](CCCCN)C(=O)N[C@@H](CCCCN)C(=O)N[C@@H](CCCCN)C(=O)N[C@@H](CCCCN)C(=O)O
Activity [1]: Non-Toxic | Activity (BV-2 [14]): Non-Toxic | Activity [3]: Non-Toxic

Activity [15]: Active | Activity [13]: Active | Activity [16]: inactive | Activity [10]: Active | Activity (TLR2/TLR6 (Homo sapiens) [4]): inactive | Activity [17]: Active | Activity [5]: Dose-dependent effect | Activity [19]: inactive | Activity [7]: Dose-dependent effect
SMILES: CCCCCCCCCCCCCCCC(=O)N[C@@H](CSCCOC(=O)CCCCCCCCCCCCCCC)C(=O)N[C@H](CO)C(=O)N[C@@H](CCCCN)C(=O)N[C@@H](CCCCN)C(=O)N[C@@H](CCCCN)C(=O)N[C@@H](CCCCN)C(=O)O
Activity (BMDM [18]): inactive | Activity (THP-1 [8]): inactive | Activity (BMDM [12]): Dose-dependent effect

Activity [15]: Active | Activity [20]: Active | Activity [13]: Active | Activity [16]: inactive | Activity [10]: Active | Activity (TLR2/TLR6 (Homo sapiens) [4]): inactive | Activity [21]: Dose-dependent effect | Activity [17]: Active | Activity [5]: Dose-dependent effect | Activity [22]: Active | Activity [23]: inactive | Activity [19]: inactive | Activity [7]: Dose-dependent effect | Activity [24]: Active
SMILES: CCCCCCCCCCCCCCCCOC(=O)NCCSC[C@H](NC(=O)CCCCCCCCCCCCCCC)C(=O)N[C@H](CO)C(=O)N[C@@H](CCCCN)C(=O)N[C@@H](CCCCN)C(=O)N[C@@H](CCCCN)C(=O)N[C@@H](CCCCN)C(=O)O
Activity (BMDM [18]): inactive | Activity (THP-1 [8]): inactive | Activity (BMDM [12]): Active

Activity [15]: Active | Activity [13]: inactive | Activity [16]: inactive | Activity [17]: Active | Activity [5]: Dose-dependent effect | Activity [19]: inactive | Activity [7]: Dose-dependent effect
SMILES: CCCCCCCCCCCCCCCC(=O)N[C@@H](CSCCNC(=O)OCCCCCCCCCCCCCC)C(=O)N[C@H](CO)C(=O)N[C@@H](CCCCN)C(=O)N[C@@H](CCCCN)C(=O)N[C@@H](CCCCN)C(=O)N[C@@H](CCCCN)C(=O)O
Activity (BMDM [18]): inactive | Activity (BMDM [12]): Active

Activity [13]: Active | Activity [10]: Active
SMILES: CCCCCCCCCCCCCCCCOC(=O)NCCSC[C@H](NC(=O)CCCCCCCCCCCCCCC)C(=O)N[C@H](CO)C(=O)N[C@@H](CCCCN)C(=O)N[C@@H](CCCCN)C(=O)N[C@@H](CCCCN)C(=O)O
Activity (BMDM [12]): Active

SMILES: CCCCCCCCCCCCCCCCOC(=O)NCCSC[C@H](NC(=O)CCCCCCCCCCCCCCC)C(=O)N[C@@H](CO)C(=O)N[C@@H](CCCCN)C(=O)N[C@@H](CCCCN)C(=O)N[C@@H](CCCCN)C(=O)O
Activity (BV-2 [14]): Non-Toxic

Activity [13]: inactive
SMILES: CCCCCCCCCCCCCCCCNC(=O)NCCSC[C@H](NC(=O)CCCCCCCCCCCCCCC)C(=O)N[C@H](CO)C(=O)N[C@@H](CCCCN)C(=O)N[C@@H](CCCCN)C(=O)N[C@@H](CCCCN)C(=O)N[C@@H](CCCCN)C(=O)O
Activity (BMDM [12]): inactive

SMILES: CCCCCCCCCCCCCCCCOC(=O)NCCSC[C@H](NC(=O)NCCCCCCCCCCCCCC)C(=O)N[C@@H](CO)C(=O)N[C@@H](CCCCN)C(=O)N[C@@H](CCCCN)C(=O)N[C@@H](CCCCN)C(=O)N[C@@H](CCCCN)C(=O)O
Activity (BV-2 [14]): Non-Toxic

Activity (BV-2 [2]): Active | Activity (Dendritic cell [29]): Active | pEC50 (Toll-like receptor 2): 7.08
SMILES: CCCCCCCCCCCCCCCCOC(=O)NCCSC[C@H](NC(=O)CCCCCCCCCCCCCCC)C(=O)N[C@@H](CO)C(=O)N[C@@H](CCCCN)C(=O)N[C@@H](CCCCN)C(=O)N[C@@H](CCCCN)C(=O)N[C@@H](CCCCN)C(=O)O
Activity (Dendritic cell [25]): Non-Toxic | Activity [1]: Non-Toxic | Activity [26]: Non-Toxic | Activity (THP-1 [27]): Non-Toxic | Activity (Dendritic cell [28]): Non-Toxic | Activity (BV-2 [14]): Non-Toxic | Activity [3]: Non-Toxic
